Assay: chemical stability of the triazene-coupling product under different conditions
Assay type: physicochemical
Details: incubated in water:ACN mixture for 24 h
Protocol: The chemical stability of the triazene-coupling product was tested under different conditions. The triazene-coupling product acts as a protecting group for secondary amines and tolerates various coupling reagents, such as N,N′-diisopropylcarbodiimide (DIC), and bases, such as N,N-diisopropylethylamine (DIEA) and pyridine (PPR), which is required for Fmoc peptide synthesis. It is also stable to a strong protein disulfide reducing agent tris(2-carboxyethyl) phosphine (TCEP) and click chemistry (CuAAC) conditions. […] This is in contrast to the stability of the azo coupling product with Tyr, which degrades quickly in the presence of sodium dithionate to generate modified tyrosine
Even though the triazene-secondary amine linkage is stable under physiologically relevant conditions, experiments were performed to determine whether the conjugate can be decoupled in a traceless manner. Indeed, exposure of the triazene modified peptide 4 MDz-AKmeF to acidic conditions (10% TFA in H2O) led to its rapid cleavage in 5 min to unchanged peptide AKmeF, as observed by HPLC and MS analysis. It is noteworthy that the acidic cleavage generated original coupling partners in an unperturbed manner. In contrast, a handful of the coupling reactions are reversible, but the products derived from decoupling are modified versions of the original reactants. […]

COC(=O)C1CCCN1N=Nc1ccc(OC)cc1 (stereo not shown) [4 MDz-Pro-OMe]
decomposition of the triazene-coupling product: no decomposition
